This is an account of results in PubChem BioAssay (NCI).

Common to all, as to assay: NCI anticancer screen, dose series, 48 h
Assay [1] has as its system OVCAR-4 ovarian.
In assay [2] the test system is SNB-19 CNS.
Assay [3] deals with BT-549 breast.
Assay [4] deals with OVCAR-3 ovarian.
Assay [5] relates to RPMI-8226 leukemia.
Assay [6] deals with HOP-92 NSCLC.
Assay [7] relates to SF-268 CNS.
Assay [8] has as its system OVCAR-8 ovarian.
The subject of assay [9] is TK-10 renal.
Assay [10] relates to LOX IMVI melanoma.

Structures are written as SMILES. “And” between values parts separate entries of the source, which are not always exact repeats. Equal values may be shown once.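 Method: 48-hour compound exposure of cells in 96-well plates, five concentrations, linear interpolation of endpoints. GI50 marks 50% less growth. At the TGI there is no net growth.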

On to `CN(Cc1cnc2nc(N)nc(N)c2n1)c1ccc(C(=O)N[C@@H](CCC(=O)O)C(=O)O)cc1`, for which the TGI was 238 µM and > 250 µM in assay [1]; 211 µM and > 250 µM in assay [2]; over 250 µM in assay [3]; 217 µM and > 250 µM in [4]; over 250 µM in assay [5]; 229 µM and > 250 µM in [6]. Besides, the TGI in assay [7] was 206 µM and > 250 µM; in [8], over 250 µM; in assay [9], 230 µM and > 250 µM; in assay [10], over 250 µM. In addition, the GI50 in [8] was 0.0703 µM and 0.488 µM.
For the molecule `CS(=O)(=O)OCCN(CCOS(C)(=O)=O)c1ccc(C=Nc2cccc(Cl)c2)cc1`, the TGI in assay [1] is over 63.6 µM; in assay [2], over 46.2 µM; in [3] it was 53.3 µM; in assay [4] it was 51.8 µM; in [5] it was 32.6 µM; in assay [6], over 92.7 µM. In addition, the TGI in [7] is over 100 µM; in [8], over 100 µM; in assay [9], 6.79 µM; in [10] it was 15.2 µM.
Take `CC(NC(=O)NC(C)(C)C)NC(=O)C(N)CC(=O)O` (stereo unspecified): the TGI in [1], in assay [2], in assay [3], in [4], in [5] and in assay [6] was over 100 µM in each case. In addition, the TGI in [7], in assay [8], in assay [9] and in assay [10] was over 100 µM throughout.
For `O=C(O)CCS/C(=C\C(SCCC(=O)O)c1ccc(Cl)cc1)c1ccc(Cl)cc1` (stereo unspecified), the TGI in [1] was over 100 µM; in [2], over 100 µM; in assay [3], 87.5 µM; in assay [4] it was 49 µM; in assay [5], 95.6 µM; in assay [6] it was over 100 µM. Besides, the TGI is over 100 µM in assay [7], over 100 µM in assay [8], over 100 µM in assay [9] and 63.1 µM in [10].
For `CC(C)(C)OC(=O)NC1CC2(C=C(Br)C(=O)C(Br)=C2)OC1=O` (stereo unspecified), the TGI is 24.1 µM in assay [1]; 38.6 µM in [2]; 30.3 µM in assay [3]; 32.5 µM in assay [4]; 4.21 µM in assay [5]; 30.1 µM in [6]. For the same molecule, the TGI in assay [7] is 32.2 µM; in [8] it was 21.4 µM; in [9], 12.2 µM; in assay [10], 33.4 µM.
With `CC(=N\N)/C(C)=N/N=C(C)/C(C)=N/N`, the TGI in [1], in assay [2], in assay [3], in assay [4], in assay [5] and in assay [6] was over 100 µM in each case. Besides, the TGI in assay [7], in [8], in assay [9] and in assay [10] was over 100 µM in each case.
For the molecule `CC[C@@]1(O)C(=O)OCc2c1cc1n(c2=O)Cc2c-1nc1ccccc1c2/C=N\NC(=O)C1CCCN1` (stereo partly specified), the TGI in assay [1] is over 100 µM; in [2], 2.5 µM; in [3], over 100 µM; in assay [4], 43.5 µM; in assay [5] it was over 59.7 µM; in [6], 21.2 µM. Besides, the TGI is 3.96 µM in [7], 10.9 µM in [8], over 100 µM in assay [9] and 2.67 µM in [10].
Consider `CC1(C)OC2[C@@H](CO[C@@]3([C@@H](O)CCO)OC(C)(C)O[C@@H]23)O1` (stereo partly specified), for which the TGI in assay [1], in assay [2], in [3], in assay [4], in assay [5] and in assay [6] was over 100 µM in each case. Moreover, the TGI in [7], in assay [8], in [9] and in [10] was over 100 µM in each case.
For the molecule `Cc1cc2/c(=C\c3ccc(N(C)C)cc3)c3ccccc3n2[n+]1C`, the TGI in assay [1] turned out to be 10.3 µM; in assay [2], 4.52 µM; in [3], 5.99 µM; in [4], 2.63 µM; in assay [5], 0.738 µM; in [6], 3.52 µM. In addition, the TGI in assay [7] came to 6.57 µM; in assay [8] it was 1.78 µM; in [9], 6.04 µM; in assay [10], 2.59 µM.
For `CSc1ccc(-c2cc(-c3nc4ccccc4[nH]3)no2)cc1`, the TGI in [1] was 19.3 µM; in [2], over 100 µM; in [3], 55.5 µM; in assay [4], 55.7 µM; in assay [5], 98 µM; in [6] it was over 100 µM. Moreover, the TGI was over 100 µM in [7], over 100 µM in assay [8], over 100 µM in [9] and 80.1 µM in assay [10].
As for `CC(C)CCC[C@@H](C)[C@H]1CC[C@H]2[C@@H]3CC[C@H]4C[C@@H](CCC=C(c5cc(Cl)c(O)c(C(=O)O)c5)c5cc(Cl)c(O)c(C(=O)O)c5)CC[C@]4(C)[C@H]3CC[C@]12C`, the TGI in assay [1], in assay [2], in assay [3], in assay [4], in [5] and in assay [6] was over 100 µM throughout. Also, the TGI in assay [7], in [8], in assay [9] and in [10] was over 100 µM in each case.
Turning to `COC(CN(C(C)=O)C1CCC2(SCCS2)c2[nH]c3ccccc3c21)OC` (stereo unspecified), the TGI in [1], in [2], in assay [3], in assay [4], in [5] and in assay [6] was over 100 µM throughout. Moreover, the TGI in assay [7] is over 100 µM; in assay [8], over 100 µM; in [9] it was over 100 µM; in assay [10] it was 1.71 µM.
As to `Cc1nc(CC#N)n[nH]1`, the TGI in assay [1], in assay [2], in [3], in assay [4], in assay [5] and in assay [6] was over 100 µM in each case. Besides, the TGI in assay [7], in [8], in assay [9] and in assay [10] was over 100 µM in each case.
